The source of these data is patent US8143253B2, “Organic compounds” (Novartis AG, priority 2007, dated 2012).

SMILES strings stand for the structures.

The subject of one data set is dimethylnitrosamine induced liver fibrosis.
Assay: not given
The settings on record: rat, during the 3 weeks treatment; cited from earlier work.
With `c1ccc(-c2cc(-c3cn[nH]c3-c3ccccn3)ccn2)cc1` [GW6604], the side effects entry is recorded as “no obvious side effects”.

Still in this data set, the particulars now being: rat, given therapeutically; cited from earlier work.
As for `c1ccc(-c2cc(-c3cn[nH]c3-c3ccccn3)ccn2)cc1` [GW6604], the “inhibited extracellular matrix deposition” value was 60% and the prevented death rate is on record as 40%.

A further data set has as its target T1, human ALK5 (ALK5 T204D kinase domain) (Homo sapiens, UniProt P36897, T204D).
T1 construct: The kinase domain of human ALK5 (amino acids 200-503) is fused to an N-terminal histidine tag; made in house; host or cells: insect cells (baculovirus)
T1 sequence (P36897 200-503 T204D): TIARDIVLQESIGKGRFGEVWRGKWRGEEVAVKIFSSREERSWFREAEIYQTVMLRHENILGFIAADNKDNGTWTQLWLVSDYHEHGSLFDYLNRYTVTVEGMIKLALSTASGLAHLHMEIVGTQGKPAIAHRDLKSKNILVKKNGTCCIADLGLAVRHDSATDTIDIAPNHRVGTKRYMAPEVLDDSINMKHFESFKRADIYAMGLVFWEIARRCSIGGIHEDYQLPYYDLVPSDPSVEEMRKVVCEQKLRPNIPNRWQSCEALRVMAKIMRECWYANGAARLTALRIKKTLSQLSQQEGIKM
Briefly: ALK5 kinase activity, radiolabelled phosphate [33P] incorporation into casein. In kind it is biochemical. To be noted: casein substrate, 1 μM unlabelled ATP. On the procedure: The kinase activity of ALK5 is assessed by measuring radiolabelled phosphate [33P] incorporation in to the generic substrate, casein. The kinase domain of human ALK5 (amino acids 200-503) is fused to an N-terminal histidine tag. The kinase activity of ALK5 is rendered constitutive via point mutation at amino acid 204 (threonine to aspartate modification, ALK5 T204D) and the kinase construct is engineered to be expressed from a baculovirus expression construct in insect cells. The purified, recombinantly-expressed histidine-tagged ALK5 T204D protein is dissolved at 5.4 mg/ml in 50 mM Tris-HCl pH 8.0, 150 mM NaCl, 5 mM DTT. ALK5 T204D is dissolved to 2.5 μg/ml in assay buffer (Assay buffer: 20 mM Tris-HCl pH 7.4, 10 mM MgCl2, 2 mM MnCl2) on the day of use.
Test compounds and reference compounds are dissolved in assay buffer without DTT containing 5% (v/v) DMSO. Stock solutions of test and reference compounds are diluted in assay buffer with DTT (1.25 mM) containing 4.5% (v/v) DMSO. 10 μl of test or reference compound are added to the corresponding wells of 96 well U-bottomed plate. Total enzyme activity is determined by measuring ALK5 T204D activity in the absence of ALK5 kinase inhibitor reference compounds. Non-specific binding (NSB) is determined by measuring the activity of ALK5 T204D in the presence of ALK5 kinase inhibitor reference compounds. 10 μl of dephosphorylated casein stock solution (dephosphorylated casein is dissolved in ddH2O at 20 mg/ml) is added per well (200 μg/well final assay concentration). 20 μl of ALK5 T204D (2.5 μg/ml solution) is added per well (50 ng/well final assay concentration). The plates are left to incubate at room temperature for 10 minutes.
10 μl of ATP mix is added to the well to initiate the reaction (0.66 nM [^33P]ATP/1 μM unlabelled ATP/well final assay concentration). The ATP mix is prepared as follows, unlabelled ATP (3 mM) is dissolved in ddH2O and pH adjusted to 7.4. The stock concentration of [^33P]ATP is 10 μCi/μl. The corresponding volume of [^33P]ATP is added to unlabelled ATP solution such that the final assay concentration per well is 0.1 μCi. Following addition of the ATP mix, the plates are incubated at room temperature for 50 minutes. The kinase reaction is terminated by the addition of 50 μL Stop Buffer (20 mM Tris-HCl pH 7.4, 10 mM EDTA).
75 μl/well from the reaction plate is transferred to a Multiscreen-IP plate (MultiScreen-IP plates are prepared by added 50 μL of 70% (v/v) ethanol per well and incubated for 5 minutes at room temperature. The ethanol is removed by aspiration via a MultiScreen HTS Vacuum Manifold unit (Millipore, Cat no: MSVMHT500). The plates are washed twice by adding 200 μl/well ddH2O). The MultiScreen-IP plate is incubated at room temperature for 30 minutes to allowing binding of casein to the plate. The MultiScreen-IP plates are washed three times by adding 200 μl/well 100 mM phosphoric acid solution and the gasket is carefully removed from the back of the MultiScreen-IP plate and the plate dried in the oven for 30 minutes. The MultiScreen-IP plate is backsealed, 50 μL of Microscint™ 20 is added, then the plates are topsealed and radiolabelled casein detected and quantified on a TopCount™ plate-reader using the ^33P scintillation protocol.
`c1cncc(-c2cnn3c(-c4cccc(-n5cccn5)c4)cnc3c2)c1` [Example 18, 3-(3-Pyrazol-1-yl-phenyl)-7-pyridin-3-yl-imidazo[1,2-b]pyridazine]: the IC50 (in general, the concentration at which inhibition is half-maximal) worked out at 47 nM.

`Oc1cccc(-c2cnn3c(-c4cccc(-n5cccn5)c4)cnc3c2)c1` [Example 8, 3-[3-(3-Pyrazol-1-yl-phenyl)-imidazo[1,2-b]pyridazin-7-yl]-phenol] registered an IC50 of 24 nM.

Regarding `CCOC(=O)c1ccc(-c2cnn3c(-c4cccc(-n5cccn5)c4)cnc3c2)cc1` [Example 34, 4-[3-(3-Pyrazol-1-yl-phenyl)-imidazo[1,2-b]pyridazin-7-yl]-benzoic acid ethyl ester], the IC50 was 141 nM.

The compound `COc1cc(-c2cnc3cc(-c4cccnc4)cnn23)ccc1O` [Example 20, 2-Methoxy-4-(7-pyridin-3-yl-imidazo[1,2-b]pyridazin-3-yl)-phenol] registered an IC50 of 203 nM.

On to `CCCCNC(=O)c1cccc(-c2cnn3c(-c4ccnc(-c5ccccc5)c4)cnc3c2)c1` [Example 59, N-Butyl-3-[3-(2-Phenyl-pyridin-4-yl)-imidazo[1,2-b]pyridazin-7-yl]-benzamide], for which the IC50 came to 236 nM.

On to `c1ccc(-c2cc(-c3cnc4cc(-c5ccncc5)cnn34)ccn2)cc1` [Example 10, 3-(2-Phenyl-pyridin-4-yl)-7-pyridin-4-yl-imidazo[1,2-b]pyridazine], for which inhibition was half-maximal at 28 nM (IC50).

As for `CNC(=O)c1cccc(-c2cnn3c(-c4ccnc(-c5ccc(F)cc5)c4)cnc3c2)c1` [Example 6, 3-{3-[2-(4-Fluoro-phenyl)-pyridin-4-yl]-imidazo[1,2-b]pyridazin-7-yl}-N-methyl-benzamide], the IC50 is 139 nM.

Regarding `NC(=O)c1cccc(-c2cnc3cc(-c4cccc(F)c4)cnn23)c1` [Example 24, 3-[7-(3-Fluoro-phenyl)-imidazo[1,2-b]pyridazin-3-yl]-benzamide], the IC50 came to 83 nM.

In turn, `CS(=O)(=O)Nc1cccc(-c2cnn3c(-c4ccnc(-c5ccoc5)c4)cnc3c2)c1` [Example 14, N-{3-[3-(2-Furan-3-yl-pyridin-4-yl)-imidazo[1,2-b]pyridazin-7-yl]-phenyl}-methanesulfonamide] had an IC50 of 42 nM.

`CNC(=O)c1cccc(-c2cnn3c(-c4ccnc(-c5ccccc5)c4)cnc3c2)c1` [Example 1, N-Methyl-3-[3-(2-phenyl-pyridin-4-yl)-imidazo[1,2-b]pyridazin-7-yl]-benzamide]: the IC50 amounted to 83 nM.
